The source of these data is PMC4290037, “Purification and Characterization of Glucose-6-Phosphate Dehydrogenase from Camel Liver” (Enzyme Research, 2014).

This assay deals with T1, Glucose-6-phosphate dehydrogenase (camel liver G6PD) (Camelus dromedarius, UniProt G1EHI3).
T1 construct: native enzyme purified from camel liver (subunit 64 kDa, native 194 kDa)
Kind of assay: enzyme inhibition kinetics of purified enzyme (Lineweaver-Burk, Hill plot, slope replot). In kind it is biochemical.

T1 sequence (G1EHI3 entry or part of it): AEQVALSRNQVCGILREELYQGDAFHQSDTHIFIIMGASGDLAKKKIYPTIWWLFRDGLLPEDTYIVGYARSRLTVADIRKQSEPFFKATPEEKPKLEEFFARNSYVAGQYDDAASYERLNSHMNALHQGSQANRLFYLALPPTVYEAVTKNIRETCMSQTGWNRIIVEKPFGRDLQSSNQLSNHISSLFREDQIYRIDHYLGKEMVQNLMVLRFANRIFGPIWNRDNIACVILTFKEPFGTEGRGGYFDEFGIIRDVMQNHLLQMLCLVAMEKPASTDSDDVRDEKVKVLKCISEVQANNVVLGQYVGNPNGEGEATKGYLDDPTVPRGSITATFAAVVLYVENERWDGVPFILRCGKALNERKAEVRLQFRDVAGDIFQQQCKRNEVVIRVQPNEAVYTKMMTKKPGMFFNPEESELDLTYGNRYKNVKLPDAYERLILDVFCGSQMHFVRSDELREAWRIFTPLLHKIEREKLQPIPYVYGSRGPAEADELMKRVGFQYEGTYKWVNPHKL

As a reminder, the Ki is a measure of affinity in units of concentration, obtained from inhibition or displacement. Read a high Ki as lower affinity. `NC(=O)C1=CN([C@@H]2O[C@H](COP(=O)(O)OP(=O)(O)OC[C@H]3O[C@@H](n4cnc5c(N)ncnc54)[C@H](OP(=O)(O)O)[C@@H]3O)[C@@H](O)[C@H]2O)C=CC1` [NADPH] displayed a Ki of 35 µM.
